The assay concerns P. falciparum 3D7 growth, pLDH absorbance. The experiment in a line: P. falciparum 3D7 growth inhibition, dose response, strain 3D7 (AID 2305).

Several values for one entry are separate records, joined by “and”; a condition that tells them apart may be missing. Equal entries are not always repeated.

Broadly, the IC50 is the midpoint of a concentration-inhibition curve. A high value points to weaker potency. For the molecule `N#Cc1ccc(CN2CCCN(Cc3cccc(NC(=O)c4ccc(-c5ccccc5)cc4)c3)CC2)cc1`, the IC50 worked out at 1020 nM. `Cc1ccccc1CNC(=O)Nc1cccc(-c2csc(N=C(N)N)n2)c1` yielded an IC50 of 700 nM. In the case of `COc1cccc(C(=O)N2CCOC(CCN3CCC(c4ccccc4)CC3)(c3ccc(Cl)c(Cl)c3)C2)c1` (stereo not given) it was 510 nM.

For the molecule `COc1ccc(-c2nc3ccc(C)nc3nc2-c2ccc(OC)cc2)cc1`, the IC50 turned out to be 1110 nM. In the case of `Cc1[nH]c(C)c(-c2ccc(CCc3ccc(F)cc3F)cc2)c(=O)c1Br` it was 10 nM.

Consider `COc1ccccc1CCNC(=O)c1cc(Br)cc(N2CCN(c3ccncc3)CC2)c1`, for which the IC50 turned out to be 1270 nM. In the case of `COc1ccc2nccc([C@@H](O)CN3CCC(NC(=O)C(c4cc5ccccc5o4)N4CCN(c5ccc(F)cc5)CC4)CC3)c2c1` (stereo not given in full) it was 200 nM; in that of `CN1CCC(C(=O)Nc2ccc(-c3ccc(-c4nc5ccccc5[nH]4)cc3)cc2)CC1`, 980 nM; in that of `Clc1ccc(Cn2nc(Br)nc2Br)c(Cl)c1`, 440 nM. The result for `Cc1cc2nc(-c3ccc(C(=O)NC4CCN(Cc5ccccc5)CC4)cc3)[nH]c2cc1C` reads 740 nM; that for `c1ccc(CN2CCC(NCc3ccccc3-c3cccc(CNC4CCCC4)c3)CC2)cc1`, 720 nM; that for `Cc1ccc(-n2cc(CNCC3CCN(CCO)CC3)c(-c3ccc(F)cc3)n2)cc1`, 2000 nM. In the case of `CNC(=O)COc1cc(C)c(C2CCN(CCCCNC(=O)c3ccc(-c4ccc(C(F)(F)F)cc4)cc3)CC2)cc1C` it was 870 nM; in that of `CC(C)(C)OC(=O)n1cc(C2CCN(CCCC34CCCc5cccc(c53)NC4=O)CC2)c2ccncc21` (stereo not given), 880 nM. As to `Clc1ccc(-c2cc3c(NCc4ccncc4)nccc3s2)cc1`, the IC50 was found to be 850 nM.

Consider `c1ccc(CCNCc2ccc(-c3ccc(CNc4ccc5ncccc5c4)cc3)cc2)cc1`, for which the IC50 is 920 nM. The result for `O=C(Nc1ccc(OC2CCN(Cc3ccc(F)cc3)C2)c(Cl)c1)c1cccs1` (stereo not given) reads 130 nM; that for `CC(=O)Nc1nc(C)c(-c2csc(Nc3ccc(Cl)cc3)n2)s1`, 260 nM; that for `CC(O)C1CCCCN1C(=O)c1cccc(-c2ccc(-c3nc4ccccc4[nH]3)s2)c1` (stereo not given), 800 nM. The result for `CCCCN(CCCC)C(=NCCCCCCN=C(NC(N)=NCc1ccc(Cl)c(Cl)c1)N(CCCC)CCCC)NC(N)=NCc1ccc(Cl)c(Cl)c1` reads 400 nM; that for `NC1=NC(c2ccccc2)(c2ccccc2)C(=O)N1CC1CCC1`, 750 nM. In the case of `COc1ccc(CCNc2nc(NCc3ccccc3)c3cc(OC)c(OC)cc3n2)cc1OC` it was 330 nM. `Cc1ccc(CN2CCCN(Cc3cccc(NC(=O)c4ccc(Cl)c(Cl)c4)c3)CC2)cc1` displayed an IC50 of 900 nM. For `O=C(NCc1ccc(Cl)c(Cl)c1)c1cccc(C2CCCN(Cc3ccc4nc[nH]c4c3)C2)c1` (stereo not given), the IC50 was determined as 930 nM. The result for `CCCCCCNc1cc(C)nc2ccc(OC)cc12` reads 550 nM; that for `CC(C)C(C(=O)n1cc2c(ccc3nc(N)nc(N)c32)n1)C(C)C`, 790 nM; that for `COc1ccc(OC)c(CC2c3ccc(Br)c(O)c3CCN2C)c1` (stereo not given), 750 nM. The molecule `COc1cc(NC(=O)Nc2cc(C)nc3ccccc23)cc(OC)c1` gave an IC50 of 400 nM. `CN1CCC(Oc2cc(CN3CC[C@H](NC(=O)c4ccc(Cl)c(Cl)c4)C3)ccc2I)C1` (stereo not given in full) showed an IC50 of 840 nM. The result for `O=C(Nc1ccc(-c2cccc(-c3nc4ccc(F)cc4[nH]3)c2)cc1)Nc1ccsc1` reads 690 nM. The molecule `CN1CCN(c2ccnc3ccc(NC(=O)Nc4cccc5ccccc45)cc23)CC1` gave an IC50 of 490 nM. The result for `CCc1c(CCNCCCCCCNC(C)(C)Cc2ccc3c(c2CC)OCO3)ccc(OC)c1OC` reads 930 nM. In the case of `O=C(/C=C/c1ccc(Cl)c(Cl)c1)NCCCCCCN1CCCN(C(=O)Nc2cc(F)cc(F)c2)CC1` it was 710 nM. The result for `O=C(/C=C/c1cccc(F)c1)NC1CCC(CN2CCC(c3c[nH]c4ccccc34)CC2)CC1` (stereo not given) reads 870 nM and 710 nM.

For the molecule `COCC(=O)N(Cc1ccccc1-c1cccc(CNCc2ccc3c(c2)OCO3)c1)C1CCN(Cc2ccccc2)CC1`, the IC50 was found to be 840 nM.

The values above are taken from PubChem BioAssay AID2305 (GlaxoSmithKline (GSK), 2010).
